Laboratory results from ChEMBL document CHEMBL1212771, “BEL-2, an extended-spectrum beta-lactamase with increased activity toward expanded-spectrum cephalosporins in Pseudomonas aeruginosa” (Antimicrob Agents Chemother, 2010).
Converted amounts (≈) assume the structure as drawn.

Key:
[1] = system: Pseudomonas aeruginosa; assay: Antimicrobial activity against Pseudomonas aeruginosa 531 expressing beta-lactamase BEL-2 by solid agar dilution method; format: functional
[2] = system: Pseudomonas aeruginosa; assay: Antimicrobial activity against Pseudomonas aeruginosa 51170 expressing beta-lactamase BEL-1 by solid agar dilution method; format: functional
[3] = system: Escherichia coli; assay: Antimicrobial activity against Escherichia coli TOP10 expressing recombinant beta-lactamase BEL-2 by solid agar dilution method; format: functional
[4] = system: Escherichia coli; assay: Antimicrobial activity against Escherichia coli TOP10 expressing recombinant beta-lactamase BEL-1 by solid agar dilution method; format: functional
[5] = system: Escherichia coli; assay: Antimicrobial activity against Escherichia coli TOP10 by solid agar dilution method; format: functional
[6] = system: Pseudomonas aeruginosa; assay: Ratio of Km for Pseudomonas aeruginosa 51170 beta-lactamase BEL-1 to Km for Pseudomonas aeruginosa 531 beta-lactamase BEL-2

Row | Structure (SMILES) | MIC [1] | MIC [2] | MIC [3] | MIC [4] | MIC [5] | Ratio [6]
1 | CC1(C)S[C@@H]2[C@H](NC(=O)[C@H](N)c3ccc(O)cc3)C(=O)N2[C@H]1C(=O)O [AMOXICILLIN] | > 512 µg/mL | > 512 µg/mL | > 512 µg/mL | > 512 µg/mL | 4 µg/mL (≈ 10.9 µM) | –
2 | CO[C@@]1(NC(=O)Cc2cccs2)C(=O)N2C(C(=O)O)=C(COC(N)=O)CS[C@@H]21 [CEFOXITIN] | 512 µg/mL (≈ 1200 µM) | 512 µg/mL (≈ 1200 µM) | 2 µg/mL | 2 µg/mL | 2 µg/mL (≈ 4.68 µM) | –
3 | CO/N=C(\C(=O)N[C@@H]1C(=O)N2C(C(=O)O)=C(COC(N)=O)CS[C@H]12)c1ccco1 [CEFUROXIME] | > 512 µg/mL | > 512 µg/mL | 32 µg/mL | 128 µg/mL | 2 µg/mL (≈ 4.71 µM) | 300
4 | CO/N=C(\C(=O)N[C@@H]1C(=O)N2C(C(=O)[O-])=C(C[n+]3cccc4c3CCC4)CS[C@H]12)c1csc(N)n1 [CEFPIROME] | 64 µg/mL (≈ 124 µM) | 16 µg/mL (≈ 31.1 µM) | 0.5 µg/mL | 0.25 µg/mL | 0.06 µg/mL (≈ 0.117 µM) | –
5 | CO/N=C(\C(=O)N[C@@H]1C(=O)N2C(C(=O)O)=C(COC(C)=O)CS[C@H]12)c1csc(N)n1 [CEFOTAXIME] | 256 µg/mL (≈ 562 µM) | 32 µg/mL (≈ 70.3 µM) | 32 µg/mL | 4 µg/mL | 0.12 µg/mL (≈ 0.263 µM) | –
6 | CO/N=C(\C(=O)N[C@@H]1C(=O)N2C(C(=O)[O-])=C(C[N+]3(C)CCCC3)CS[C@H]12)c1csc(N)n1 | 16 µg/mL (≈ 33.3 µM) | 4 µg/mL (≈ 8.32 µM) | 1 µg/mL | 0.25 µg/mL | – | –
7 | CC1(C)S[C@@H]2[C@H](NC(=O)[C@H](C(=O)O)c3ccsc3)C(=O)N2[C@H]1C(=O)O [TICARCILLIN] | > 512 µg/mL | > 512 µg/mL | > 512 µg/mL | > 512 µg/mL | 4 µg/mL (≈ 10.4 µM) | –
